Molecules are shown by their SMILES.

A short description of this series: gradient 5% acetonitrile 3 min, to 50% in 2 min, to 85% in 15 min, held 3 min, 100 µL/min. To be noted: column: Zorbax Extend-C18 2.1 x 50 mm; eluents: water / acetonitrile, 0.1% formic acid. A digest of the protocol:
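Using water and acetonitrile that each contained 0.1% formic acid, mixtures of ~100 pure standards were separated at 100 μL/min on a Zorbax Extend-C18 column (2.1 × 50 mm, 1.8 μm). The HPLC fed a quadrupole time-of-flight mass spectrometer working in positive and negative ionization mode, with dead and dwell volumes of 40 μL and 900 μL. Data were acquired over 3 months. Retention time was read from computationally picked adduct peaks after manual inspection of each.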
As for `Cc1n[nH]c(C)c1CNC(=O)C1Cn2cccc2C(=O)N1C` (centres undefined), the RP-LC retention time was 549 s.

Regarding `Cc1cc(=O)n(CC(=O)NCc2ccccc2Cl)c(N)n1`, the RP-LC retention time worked out at 603 s.

On to `Cc1cc(F)ccc1N1C(=O)CN(S(C)(=O)=O)CC1(C)C(=O)NCc1ccccc1` (centres undefined), for which the RP-LC retention time came to 804 s.

For the compound `Cc1cccc(-c2cc3n(n2)CCCN(C(=O)Cc2cccc(C(F)(F)F)c2)C3)c1`, the RP-LC retention time is 1030 s.

On to `CCOC(=O)COc1cc(-c2ccc(C)cc2)nc2ccc(NC(=O)c3ccco3)cc12`, for which the RP-LC retention time came to 778 s.

`CN(C1CCc2nn(CC3CC3)c(=O)n2CC1)S(=O)(=O)c1ccccc1C(F)(F)F` (centres undefined) had an RP-LC retention time of 831 s.

`O=C(c1ccc(Cl)c(Cl)c1)N1CCC2(CC1)OCCS2` had an RP-LC retention time of 890 s.

In turn, `CCc1cc(N2CCN(C(=O)c3cc(OC)cc(OC)c3)CC2)nc2nncn12` returned an RP-LC retention time of 601 s.

For `CCN1C(=O)C2(CCN(S(=O)(=O)c3ccc(Cl)cc3C)CC2)c2ccccc21`, the RP-LC retention time was 1200 s.

The compound `Cc1cccc(-n2cc(C(=O)OCc3cc(=O)n4ccccc4n3)c3ccccc3c2=O)c1` had an RP-LC retention time of 906 s.

In turn, `CCN1CCCn2cc(S(=O)(=O)Nc3ccc(Cl)cc3C)cc2C1=O` showed an RP-LC retention time of 790 s.

For the compound `COc1cccc(NC(=O)N2CCC3(C2)C(=O)N(C)c2ccc(OC)cc23)c1` (centres undefined), the RP-LC retention time came to 746 s.

For the compound `Cc1ccc(C(=O)Nc2ccc3c(c2)Sc2ncccc2C(=O)N3C(C)C)cc1F`, the RP-LC retention time turned out to be 986 s.

Compound `CCOc1ccc(CC(=O)N2CCC3(CC2)Nc2cc(OC)ccc2-n2cccc23)cc1OCC` gave an RP-LC retention time of 1030 s.

In the case of `O=C(CC1CCN(C(=O)c2ccc3oc(C4CC4)nc3c2)CC1)NCc1ccccn1`, the RP-LC retention time was determined as 605 s.

`COCC(=O)N(CCC(C)C)CC(=O)N1CCc2sccc2C1COc1ccccc1F` (centres undefined) displayed an RP-LC retention time of 958 s.

Take `CCC(C)NC(=O)c1ccc2c(c1)Sc1ncccc1C(=O)N2CC` (centres undefined): the RP-LC retention time was found to be 749 s.

On to `O=C(COc1ccccc1)N1CC2CN(S(=O)(=O)c3ccc(F)cc3)CC(C1)O2`, for which the RP-LC retention time was determined as 846 s.

On to `CCOc1ccc(NC(=O)c2cnc(-c3ccc(OC)cc3)nc2-c2ccncc2)cc1`, for which the RP-LC retention time turned out to be 875 s.

The compound `CCN1CCN(CC2CCN(S(=O)(=O)Cc3ccc(Cl)cc3)CC2)CC1` displayed an RP-LC retention time of 610 s.

On to `Cn1cnc(S(=O)(=O)N2CCC(C(=O)NC3CCCc4ccccc43)CC2)c1` (centres undefined), for which the RP-LC retention time was 728 s.

In the case of `CCn1c(C2CCN(S(=O)(=O)c3ccc(C(C)C)cc3)C2)nc2cccnc21` (centres undefined), the RP-LC retention time came to 906 s.

`CN1C(=O)c2cccn2CC1CNC(=O)Nc1ccc2c(c1)OCCO2` (centres undefined): the RP-LC retention time amounted to 624 s.

Take `CC(N)c1cccc(Cl)c1Cl` (centres undefined): the RP-LC retention time was 636 s.

In turn, `O=S(=O)(c1ccc2nncn2c1)N(Cc1cc(F)cc(F)c1)c1ccccc1` yielded an RP-LC retention time of 861 s.

For `CCOC(=O)c1cccc(Nc2c(-c3ccc(C(=O)O)cc3)nc3cnccn23)c1`, the RP-LC retention time was determined as 726 s.

`Cc1cc(C(=O)Nc2nc(-c3ccccc3)c(-c3ccccc3)s2)no1` returned an RP-LC retention time of 1180 s.

`CCCCNC(=O)C(=O)NCC1OCCc2ccccc21` (centres undefined) registered an RP-LC retention time of 879 s.

Turning to `CC(=O)Nc1ccc(-c2noc(C3CCN(C(=O)CCC4CCCC4)CC3)n2)cc1`, the RP-LC retention time was found to be 924 s.

The compound `COc1ccc(NC(=O)Cn2c(=O)n(-c3ccc(F)cc3)c(=O)c3c2cc(C)n3C)cc1Cl` displayed an RP-LC retention time of 873 s.

`CC(C)(C)C(=O)N1CCC(C(=O)Nc2cccc(Br)c2)CC1` yielded an RP-LC retention time of 855 s.

As for `COc1cccc(-c2csc(-c3nnn(-c4cccc(Cl)c4)c3N)n2)c1`, the RP-LC retention time was 1170 s.

Compound `CCC(=O)N1CCc2c(C(=O)N3CCN(c4ccccc4Cl)CC3)cccc21` yielded an RP-LC retention time of 960 s.

As to `COCCn1cc(CCNC(=O)Nc2ccc(Br)cc2F)c2cccnc21`, the RP-LC retention time is 834 s.

`Cc1cc(S(=O)(=O)N2CCN(C3CCN(C)C3=O)CC2)ccc1Cl` (centres undefined) came in with an RP-LC retention time of 595 s.

Take `O=C(NC1CCCCCCC1)C1CCN(C(=O)c2cccn2-c2cccnc2)CC1`: the RP-LC retention time came out at 797 s.

On to `CS(=O)(=O)N1CCCC(C(=O)N(Cc2ccccc2)Cc2ccccc2)C1` (centres undefined), for which the RP-LC retention time stood at 886 s.

Regarding `CCOc1ccc(NC(=O)N2CCC3(CC2)NC(=O)c2ccc(F)cc2N3C)cc1`, the RP-LC retention time stood at 777 s.

For `CCn1c(=O)c(C)nc2cc(-c3noc(-c4ccccc4C)n3)ccc21`, the RP-LC retention time turned out to be 1190 s.

`CCC(=O)N1CCc2c(C(=O)N3CCN(c4ccccc4OC)CC3)cccc21`: the RP-LC retention time was determined as 786 s.

Compound `CCCOc1nc2ccccc2nc1N1CCCC(C(=O)NCc2ccco2)C1` (centres undefined) registered an RP-LC retention time of 1100 s.

As for `Cc1nn(-c2ccc(-c3ccccc3)nn2)c(C)c1S(=O)(=O)NCc1ccc(F)cc1F`, the RP-LC retention time turned out to be 990 s.

For the compound `CCN1C(=O)c2cccnc2Sc2cc(CNC(=O)c3ccccc3F)ccc21`, the RP-LC retention time was 702 s.

Regarding `Cc1ccc(NC(=O)CSc2nnc3c4cc(-c5ccccc5)nn4ccn23)c(Cl)c1`, the RP-LC retention time was 957 s.

In turn, `Cn1cnc(S(=O)(=O)N2CCC(C(=O)N3CCCCCC3)CC2)c1` returned an RP-LC retention time of 638 s.

The compound `COCCc1noc(C2Cc3ccccc3N2C(=O)NCc2cccc(OC)c2)n1` (centres undefined) had an RP-LC retention time of 618 s.

Regarding `O=C(Nc1ccccc1C(F)(F)F)N1CCC(N2CCN(Cc3cccc(F)c3)C(=O)C2=O)CC1`, the RP-LC retention time was 829 s.

In turn, `COC(=O)c1cc(OC)c(OC)cc1NC(=O)C1=Cc2cc(OC)ccc2OC=C1` registered an RP-LC retention time of 829 s.

`O=C(CN1CCN(Cc2ccccc2)C1=O)NCc1cccc(F)c1`: the RP-LC retention time amounted to 761 s.

For `Cc1ccc2c(c1)OCC(=O)N2Cc1nc(-c2ccc3c(c2)OCO3)no1`, the RP-LC retention time turned out to be 1030 s.

`COc1cc(C(CC(=O)N2CCCC2)N2Cc3ccccc3C2=O)cc(OC)c1OC` (centres undefined): the RP-LC retention time was 661 s.

`Cc1ccc(CNC(=O)CCNc2c(-c3ccccc3C)nc3cnccn23)o1` yielded an RP-LC retention time of 631 s.

`COc1ccc(-c2nc(-c3cn(Cc4cccc(F)c4)nn3)no2)cc1OC` registered an RP-LC retention time of 901 s.

Regarding `Cc1ccccc1NC(=O)N1CCN(c2nc3ccccc3nc2C(F)(F)F)CC1`, the RP-LC retention time is 1070 s.

`c1ccc2c(CC3=NCCN3)cccc2c1`: the RP-LC retention time came to 619 s.

Regarding `COc1ccc(-c2ncc3c(n2)CCN(C(=O)Nc2ccccc2Cl)C3)cc1`, the RP-LC retention time is 948 s.

`COc1cccc(S(=O)(=O)N2CCC3(CC2)N(C)C(=O)CS3=O)c1` (centres undefined) came in with an RP-LC retention time of 653 s.

The compound `CCSCCOC(=O)C1=C(C)NC2=C(C(=O)CCC2)C1c1cccc(OC)c1OC` (centres undefined) returned an RP-LC retention time of 861 s.

`CCN(CC)C(=O)c1ccc2c(c1)N(CC(=O)NCc1ccccn1)C(=O)CO2` displayed an RP-LC retention time of 594 s.

The values above are taken from the METLIN SMRT retention time set (Domingo-Almenara et al. 2019).
